pIC50: −log10 of the molar value.
System: VSV-g pseudotyped HIV vector that expresses luciferase (PHIV)
Experiment: microbe, parasite or virus in culture
Type: cell-based
Conditions: Human immunodeficiency virus 1, HEK-293T, 48 h, read-out: PHIV IC50

Row | Compound | pIC50
1 | C[C@@H]1[C@H](c2ccccc2)OC2Cn3cc(C(=O)NCc4ccc(F)cc4F)c(=O)c(O)c3C(=O)N21 (stereo partly drawn) [Example Z-15, (2S,3R)—N-[(2,4-Difluorophenyl)methyl]-6-hydroxy-3-methyl-5,7-dioxo-2-phenyl-2,3,5,7,11,11a-hexahydro[1,3]oxazolo[3,2-a]pyrido[1,2-d]pyrazine-8-carboxamide] | > 8.00
2 | O=C(NCc1ccc(F)cc1F)c1cn2c(c(O)c1=O)C(=O)N1[C@H](Cc3ccccc3)CO[C@H]1C2 [Example Z-16, (3R,11aS)—N-[(2,4-Difluorophenyl)methyl]-6-hydroxy-5,7-dioxo-3-(phenylmethyl)-2,3,5,7,11,11a-hexahydro[1,3]oxazolo[3,2-a]pyrido[1,2-d]pyrazine-8-carboxamide] | > 8.00
3 | CC(C)C[C@@H]1CO[C@H]2Cn3cc(C(=O)NCc4ccc(F)cc4F)c(=O)c(O)c3C(=O)N12 [Example Z-17, (3R,11aS)—N-[(2,4-Difluorophenyl)methyl]-6-hydroxy-3-(2-methylpropyl)-5,7-dioxo-2,3,5,7,11,11a-hexahydro[1,3]oxazolo[3,2-a]pyrido[1,2-d]pyrazine-8-carboxamide] | > 8.00
4 | O=C(NCc1ccc(F)cc1F)c1cn2c(c(O)c1=O)C(=O)N1CC3CCCCN3[C@H]1C2 (stereo partly drawn) [Example Z-18, (3aR,14aR)—N-[(2,4-Difluorophenyl)methyl]-11-hydroxy-10,12-dioxo-1,2,3,4,5a,6,10,12,14,14a-decahydropyrido[1,2-d]pyrido[1′,2′:3,4]imidazo[1,2-d]pyrazine-9-carboxamide] | > 8.00
5 | COC[C@H]1[C@H](c2ccccc2)OC2Cn3cc(C(=O)NCc4ccc(F)cc4F)c(=O)c(O)c3C(=O)N21 (stereo partly shown) [Example Z-19] | > 8.00
6 | O=C(NCc1ccc(F)cc1F)c1cn2c(c(O)c1=O)C(=O)N1[C@@H](CC3CCCCC3)CO[C@@H]1C2 [Example Z-20] | 7.00 to 8.00
7 | CC(C)[C@H]1CO[C@@H]2Cn3cc(C(=O)NCc4ccc(F)cc4F)c(=O)c(O)c3C(=O)N12 [Example Z-21, (3S,11aR)—N-[(2,4-Difluorophenyl)methyl]-6-hydroxy-3-(1-methylethyl)-5,7-dioxo-2,3,5,7,11,11a-hexahydro[1,3]oxazolo[3,2-a]pyrido[1,2-d]pyrazine-8-carboxamide] | > 8.00
8 | O=C(NCc1ccc(F)cc1F)c1cn2c(c(O)c1=O)C(=O)N1C(C2)O[C@@H]2Cc3ccccc3[C@@H]21 (stereo partly drawn) [Example Z-22, (5aR,14aS)—N-[(2,4-Difluorophenyl)methyl]-12-hydroxy-11,13-dioxo-5a,6a,7,11,13,14a-hexahydro-5H-indeno[1′,2′:4,5][1,3]oxazolo[3,2-a]pyrido[1,2-d]pyrazine-10-carboxamide] | > 8.00
9 | O=C(NCc1ccc(F)cc1F)c1cn2c(c(O)c1=O)C(=O)N1[C@H](C2)O[C@@H](c2ccccc2)[C@H]1c1ccccc1 [Example Z-23, (2S,3R,11aS)—N-[(2,4-Difluorophenyl)methyl]-6-hydroxy-5,7-dioxo-2,3-diphenyl-2,3,5,7,11,11a-hexahydro[1,3]oxazolo[3,2-a]pyrido[1,2-d]pyrazine-8-carboxamide] | > 8.00
10 | O=C(NCc1ccc(F)cc1F)c1cn2c(c(O)c1=O)C(=O)N1[C@H](c3ccccc3)[C@H](c3ccccc3)O[C@@H]1C2 [Example Z-24, (2S,3R,11aR)—N-[(2,4-Difluorophenyl)methyl]-6-hydroxy-5,7-dioxo-2,3-diphenyl-2,3,5,7,11,11a-hexahydro[1,3]oxazolo[3,2-a]pyrido[1,2-d]pyrazine-8-carboxamide] | > 8.00
11 | CC(C)[C@@H]1CO[C@H]2Cn3cc(C(=O)NCc4ccc(F)cc4F)c(=O)c(O)c3C(=O)N21 [Example Z-25, (3R,11aS)—N-[(2,4-Difluorophenyl)methyl]-6-hydroxy-3-(1-methylethyl)-5,7-dioxo-2,3,5,7,11,11a-hexahydro[1,3]oxazolo[3,2-a]pyrido[1,2-d]pyrazine-8-carboxamide] | > 8.00
12 | CSCC[C@H]1CO[C@@H]2Cn3cc(C(=O)NCc4ccc(F)cc4F)c(=O)c(O)c3C(=O)N12 [Example Z-26, (2S,11aR)—N-[(2,4-Difluorophenyl)methyl]-6-hydroxy-3-[2-(methylthio)ethyl]-5,7-dioxo-2,3,5,7,11,11a-hexahydro[1,3]oxazolo[3,2-a]pyrido[1,2-d]pyrazine-8-carboxamide] | > 8.00
13 | CS(=O)(=O)CC[C@H]1CO[C@@H]2Cn3cc(C(=O)NCc4ccc(F)cc4F)c(=O)c(O)c3C(=O)N12 [Example Z-27, (3S,11aR)—N-[(2,4-Difluorophenyl)methyl]-6-hydroxy-3-[2-(methylsulfonyl)ethyl]-5,7-dioxo-2,3,5,7,11,11a-hexahydro[1,3]oxazolo[3,2-a]pyrido[1,2-d]pyrazine-8-carboxamide] | < 7.00
14 | O=C(NCc1ccc(F)cc1F)c1cn2c(c(O)c1=O)C(=O)N1[C@@H](Cc3c[nH]c4ccccc34)CO[C@@H]1C2 [Example Z-28, (3S,11aR)—N-[(2,4-Difluorophenyl)methyl]-6-hydroxy-3-(1H-indo-3-ylmethyl)-5,7-dioxo-2,3,5,7,11,11a-hexahydro[1,3]oxazolo[3,2-a]pyrido[1,2-d]pyrazine-8-carboxamide] | > 8.00
15 | CC(C)CN1CC[C@@H](C)N2C(=O)c3c(O)c(=O)c(C(=O)NCc4ccc(F)cc4)cn3C[C@H]12 [Example Z-29, (4R,12aR)—N-[(4-fluorophenyl)methyl]-7-hydroxy-4-methyl-1-(2-methylpropyl)-6,8-dioxo-6-[(phenylmethyl)oxy]-1,2,3,4,6,8,12,12a-octahydropyrido[1′,2′:4,5]pyrazino[1,2-a]pyrimidine-9-carboxamide] | > 8.00
16 | CC(C)N1CC[C@@H](C)N2C(=O)c3c(O)c(=O)c(C(=O)NCc4ccc(F)cc4)cn3C[C@H]12 [Example Z-30, (4R,12aR)—N-[(4-Fluorophenyl)methyl]-7-hydroxy-4-methyl-1-(1-methylethyl)-6,8-dioxo-1,2,3,4,6,8,12,12a-octahydropyrido[1′,2′:4,5]pyrazino[1,2-a]pyrimidine-9-carboxamide] | > 8.00
17 | CC(C)CN1CC[C@H](C)N2C(=O)c3c(O)c(=O)c(C(=O)NCc4ccc(F)cc4F)cn3C[C@@H]12 [Example Z-31, (4S,12aS)—N-[(2,4-Difluorophenyl)methyl]-7-hydroxy-4-methyl-1-(2-methylpropyl)-6,8-dioxo-1,2,3,4,6,8,12,12a-octahydropyrido[1′,2′:4,5]pyrazino[1,2-a]pyrimidine-9-carboxamide] | > 8.00
18 | C[C@H]1CCN(CC2CC2)[C@@H]2Cn3cc(C(=O)NCc4ccc(F)cc4F)c(=O)c(O)c3C(=O)N12 [Example Z-32, (4S,12aS)-1-(Cyclopropylmethyl)-N-[(2,4-difluorophenyl)methyl]-7-hydroxy-4-methyl-7-hydroxy-4-methyl-6,8-dioxo-1,2,3,4,6,8,12,12a-octahydropyrido[1′,2′:4,5]pyrazino[1,2-a]pyrimidine-9-carboxamide] | > 8.00
19 | C[C@H]1CCN(Cc2ccco2)[C@@H]2Cn3cc(C(=O)NCc4ccc(F)cc4F)c(=O)c(O)c3C(=O)N12 [Example Z-33, (4S,12aS)—N-[(2,4-Difluorophenyl)methyl]-1-(1-furanylmethyl)-7-hydroxy-4-methyl-6,8-dioxo-1,2,3,4,6,8,12,12a-octahydropyrido[1′,2′:4,5]pyrazino[1,2-a]pyrimidine-9-carboxamide] | > 8.00

Source: patent US11267823B2, “Substituted 1,2,3,3a,4,5,7,9,13,13a-decahydropyrido[1′,2′:4,5]pyrazino[1,2-a]pyrrolo[1,2-c]pyrimidines having HIV integrase inhibitory activity” (Shionogi & Co., Ltd., priority 2005, dated 2022)
